According to paper PMC4132742, “Inhibition of RNA binding to hepatitis C virus RNA-dependent RNA polymerase: a new mechanism for antiviral intervention” (Nucleic Acids Research, 2014):

Biological target: HCV-NS5BΔ21 RdRp genotype 1b (strain J4) (Hepatitis C virus genotype 1b, UniProt O92972)
Experiment: biochemical
Parameters: His6 (N); made in house; host or cells: Escherichia coli C41(DE3)
Settings: 20 μM compound; for Slope of fluorescence increase: no treatment control slope 62.0
Procedure: The HCV RdRps (NS5B protein) from reference strains H77 (genotype 1a), J4 (genotype 1b) and JFH1 (genotype 2a), truncated of their 21 C-terminal amino acids to ensure solubility (NS5BΔ21) and carrying a hexahistidine tag (His6-Tag) at their N-terminus, were expressed in Escherichia coli C41(DE3) and purified as previously described ([20]). Briefly, cultures were grown at 37°C for ∼1 h and induced with 1 mM isopropyl β-D-thiogalactoside for 4 h at 37°C. […] After sonication, cell lysates were clarified by centrifugation, and chromatography was performed on a Ni-NTA column (Qiagen, Hilden, Germany). The bound protein was eluted in 1 ml fractions with a buffer containing 50 mM NaH2PO4 (pH 8.0), 500 mM NaCl and 250 mM imidazole. NS5BΔ21-enriched fractions were selected using a Bradford colorimetric assay, and HCV-NS5BΔ21 purity was determined by Coomassie-stained sodium dodecyl sulfate-polyacrylamide electrophoresis gel (SDS-PAGE) analysis. Purified NS5BΔ21 fractions were pooled and dialyzed against a buffer containing 5 mM Tris (pH 7.5), 0.2 M sodium acetate, 1 mM DTT, 1 mM ethylenediaminetetraacetic acid (EDTA) and 10% glycerol.
The cell-free HCV-NS5BΔ21 polymerase assay is based on the real-time measurement of the amount of double-stranded RNA synthesized in the presence of HCV-NS5BΔ21, a homopolymeric RNA template (poly U or poly C, GE Healthcare, Chalfont St. Giles, UK) and the corresponding nucleotide, by means of an intercalating agent (SYBR® Green, Applied Biosystems, Carlsbad, CA, USA), as previously described ([20]). For screening, HCV-NS5BΔ21 polymerase activity was quantified by the slope of fluorescence increase in the presence of 20 μM of the tested flavonoid compounds and compared with the control reaction containing no inhibitor. […] The reported values are the average of three independent measurements performed in duplicate. For kinetics analysis, initial reaction velocities were measured at different nucleotide (adenosine triphosphate (ATP) or GTP) and studied compound concentrations, without pre-incubation and in the presence of 50 μg/ml of the corresponding homopolymeric RNA template (Poly U and Poly C, respectively). The concentration of NS5BΔ21 (J4 strain, genotype 1b) in the reaction was 0.1 mg/ml. Kinetics data were graphically represented as double reciprocal plots. Data points were fitted by linear regression to identify the inhibition mode of the compound.

SMILES | % HCV-NS5BΔ21 inhibition [%] | Slope of fluorescence increase | inhibition at 20 µM [%] | % HCV-NS5BΔ21 inhibition (20 µM) [%]
Oc1cc(O)c2c(c1)O[C@H](c1ccc(O)c(O)c1)[C@@H](O)C2 (racemic) [DL-Catechin] | 17.7 | 51.1 | – | –
O=C1c2ccc(O)cc2OC(c2cc(O)c(O)c(O)c2)C1O (stereo in doubt) [Dihydrorobinetin] | 11.0 | 55.2 | – | –
O=c1cc(-c2ccc(O)c(O)c2)oc2ccccc12 [3’.4’-Dihydroxyflavone] | 45.4 | 33.9 | – | –
O=c1cc(-c2ccc(O)c(O)c2)oc2c(O)c(O)ccc12 [3’.4’.7.8-Tetrahydroxyflavone] | 30.9 | 42.9 | – | –
O=C1CC(c2ccc(O)cc2)Oc2ccccc21 (stereo not shown) [4’-Hydroxyflavanone] | – | 56.3 | 9.3 | –
O=c1c(O)c(-c2ccc(O)cc2)oc2cc(O)ccc12 [5-Deoxykampferol] | – | 22.4 | – | 63.9
O=c1cc(-c2ccccc2)oc2cccc(O)c12 [5-hydroxyflavone] | – | 53.0 | 14.5 | –
O=c1cc(-c2ccccc2)oc2c(O)c(O)cc(O)c12 [5.7.8-Trihydroxyflavone] | 47.4 | 32.6 | – | –
O=C1CC(c2ccccc2)Oc2ccc(O)cc21 (stereo not shown) [6-Hydroxyflavanone] | – | 59.5 | 4.1 | –
O=c1cc(-c2ccccc2)oc2ccc(O)cc12 [6-Hydroxyflavone] | – | 50.6 | 18.5 | –
O=c1cc(-c2ccccc2)oc2cc(O)c(O)cc12 [6.7 Dihydroxyflavone] | 37.4 | 38.8 | – | –
O=c1c(O)c(-c2ccccc2)oc2cc(O)ccc12 [7-hydroxyflavonol] | – | 17.8 | 71.3 | –
O=c1cc(-c2ccc(O)cc2)oc2cc(O)ccc12 [7.4’-Dihydroxyflavone] | 25.7 | 46.1 | – | –
O=c1cc(-c2ccccc2)oc2c(O)c(O)ccc12 [7.8 Dihydroxyflavone] | 30.8 | 42.9 | – | –
O=c1cc(-c2ccc(O)cc2)oc2cc(O)cc(O)c12 [Apigenin] | – | 23.3 | 62.5 | –
O=c1cc(-c2ccccc2)oc2cc(O)c(O)c(O)c12 [Baicalein] | – | 23.7 | 61.8 | –
O=c1c(O)c(-c2ccccc2O)oc2cc(O)cc(O)c12 [Datiscetin] | – | 18.3 | 70.5 | –
O=c1c(O)c(-c2ccc(O)c(O)c2)oc2cc(O)ccc12 [Fisetin] | – | 21.2 | 65.8 | –
O=C1CC(c2ccccc2)Oc2ccccc21 (stereo not shown) [Flavanone] | – | 57.4 | 7.5 | –
O=c1cc(-c2ccccc2)oc2ccccc12 [Flavone] | – | 53.9 | 13.1 | –
O=C1c2ccc(O)cc2O[C@H](c2ccc(O)c(O)c2)[C@H]1O [Fustin] | – | 53.0 | 14.5 | –

SMILES | % HCV-NS5BΔ21 inhibition [%] | Slope of fluorescence increase | inhibition at 20 µM [%] | % HCV-NS5BΔ21 inhibition (20 µM) [%]
O=c1c(O)c(-c2ccccc2)oc2cc(O)cc(O)c12 [Galangin] | – | 11.9 | 80.8 | –
O=c1c(-c2ccc(O)cc2)coc2cc(O)cc(O)c12 [Genistein] | – | 53.9 | 13.1 | –
O=c1c(O)c(-c2ccc(O)c(O)c2)oc2c(O)c(O)cc(O)c12 [Gossypetin] | – | 15.8 | 74.6 | –
O=c1c(O[C@@H]2O[C@H](CO)[C@H](O)[C@H](O)[C@H]2O)c(-c2ccc(O)c(O)c2)oc2cc(O)cc(O)c12 [Hyperoside] | – | 44.6 | 28.1 | –
COc1cc(-c2oc3cc(O)cc(O)c3c(=O)c2O)ccc1O [Isorhamnetin] | – | 13.9 | 77.6 | –
O=c1c(O)c(-c2ccc(O)cc2)oc2cc(O)cc(O)c12 [Kaempferol] | – | 15.7 | 74.7 | –
O=C1C[C@@H](c2ccc(O)cc2)Oc2cc(O)ccc21 [Liquiritigenin] | 6.1 | 58.3 | – | –
O=c1cc(-c2ccc(O)c(O)c2)oc2cc(O)cc(O)c12 [Luteolin] | – | 11.4 | 81.7 | –
O=c1c(O)c(-c2ccc(O)cc2O)oc2cc(O)cc(O)c12 [Morin] | – | 19.0 | 69.3 | –
O=c1c(O)c(-c2cc(O)c(O)c(O)c2)oc2cc(O)cc(O)c12 [Myricetin] | – | 12.9 | 79.2 | –
O=C1C[C@@H](c2ccc(O)cc2)Oc2cc(O)cc(O)c21 [Naringenin] | – | 58.3 | 6 | –
O=c1c(O)c(-c2ccc(O)c(O)c2)oc2cc(O[C@@H]3O[C@H](CO)[C@@H](O)[C@H](O)[C@H]3O)c(O)c(O)c12 [Quercetagetin-7-O glucoside] | 42.5 | 35.7 | – | –
COc1cc(OC)c2c(=O)c(OC)c(-c3ccc(OC)c(OC)c3)oc2c1 [Quercetin 3.5.7.3’.4’ pentamethylether] | 4.0 | 59.6 | – | –
COc1cc(O)c2c(=O)c(OC)c(-c3ccc(OC)c(OC)c3)oc2c1 [Quercetin 3.7.3’.4’ tétramethylether] | 14.5 | 53.0 | – | –
O=c1c(O[C@@H]2O[C@H](CO)[C@@H](O)[C@H](O)[C@H]2O)c(-c2ccc(O)c(O)c2)oc2cc(O)cc(O)c12 [Quercetin-3-O glucopyranoside] | 25.9 | 46.0 | – | –
O=c1c(O)c(-c2ccc(O)c(O)c2)oc2cc(O)cc(O)c12 [Quercetin] | – | 10.1 | 83.7 | –
O=c1c(O)c(-c2cc(O)c(O)c(O)c2)oc2cc(O)ccc12 [Robinetin] | – | 27.4 | 55.9 | –
C[C@@H]1O[C@@H](OC[C@H]2O[C@@H](Oc3c(-c4ccc(O)c(O)c4)oc4cc(O)cc(O)c4c3=O)[C@H](O)[C@@H](O)[C@@H]2O)[C@H](O)[C@H](O)[C@H]1O [Rutin] | – | 43.2 | 30.3 | –
O=c1cc(-c2ccc(O)cc2)oc2cc(O)c(O)c(O)c12 [Scutellarein] | – | 20.2 | 67.4 | –
O=c1cc(-c2cc(O)c(O)c(O)c2)oc2cc(O)cc(O)c12 [Tricetin] | – | 18.9 | 69.5 | –
